{"source": "paper PMC2762271", "about": "(Journal of medicinal chemistry, 2009)", "key": {"[1]": {"test_system": "L1210, FM3A, Molt4, CEM, and HeLa cell lines", "assay": "Antiproliferative activity, panel of five tumor cell lines", "type": "cell-based", "details": "on average over the cell lines"}, "[2]": {"test_system": "tubulin", "assay": "Inhibition of tubulin polymerization", "type": "biochemical", "details": "for fold less active than 5t as inhibitor of tubulin assembly: relative to 5t"}, "[3]": {"test_system": "L1210", "assay": "Antiproliferative activity, L1210 cell line", "type": "cell-based", "details": "Mus musculus, L1210, read-out: IC50 L1210"}}, "data": [{"smiles": "COc1ccc(Nc2nc(N)c(C(=O)c3cc(OC)c(OC)c(OC)c3)s2)cc1", "note": "[5u]", "values": [{"measurement": "average fold reduction of potency relative to 5q (cell growth inhibition)", "setting": "[1]", "result": 83, "unit": "fold"}]}, {"smiles": "COc1cccc(Nc2nc(N)c(C(=O)c3ccccc3)s2)c1", "note": "[5f]", "values": [{"measurement": "fold less active than 5t as inhibitor of tubulin assembly", "setting": "[2]", "result": 10, "unit": "fold"}]}, {"smiles": "COc1cc(C(=O)c2sc(Nc3ccc(C)cc3)nc2N)cc(OC)c1OC", "note": "[5t]", "values": [{"measurement": "times more potent than 4a (tubulin assembly)", "setting": "[2]; relative to 4a", "result": 5, "unit": "times"}, {"measurement": "times more potent than CA-4 (tubulin assembly)", "setting": "[2]; relative to CA-4", "result": 2, "unit": "times"}]}, {"smiles": "COc1cc(C(=O)c2sc(Nc3ccc(F)cc3)nc2N)cc(OC)c1OC", "note": "[5r]", "values": [{"measurement": "average fold reduction of potency relative to 5q (cell growth inhibition)", "setting": "[1]", "result": 27, "unit": "fold"}]}, {"smiles": "COc1cc(C(=O)c2sc(Nc3ccc(Cl)cc3)nc2N)cc(OC)c1OC", "note": "[5s]", "values": [{"measurement": "average fold reduction of potency relative to 5q (cell growth inhibition)", "setting": "[1]", "result": 27, "unit": "fold"}]}, {"smiles": "COc1ccc(/C=C\\c2cc(OC)c(OC)c(OC)c2)cc1O", "note": "[CA-4, combretastatin A-4]", "values": [{"measurement": "IC50", "setting": "[3]", "result": "2.8 ± 1.1", "unit": "nM"}]}, {"smiles": "Nc1nc(Nc2ccccc2)sc1C(=O)c1ccccc1", "note": "[5a]", "values": [{"measurement": "fold less active than 5t as inhibitor of tubulin assembly", "setting": "[2]", "result": 5, "unit": "fold"}]}]}
